Molecules are shown by their SMILES. pIC50: −log10 of the molar value. Some results are limits rather than exact numbers.

In this experiment the target is T1, human MRGPRX2 (Homo sapiens, UniProt Q96LB1).
T1 sequence (Q96LB1 1-330): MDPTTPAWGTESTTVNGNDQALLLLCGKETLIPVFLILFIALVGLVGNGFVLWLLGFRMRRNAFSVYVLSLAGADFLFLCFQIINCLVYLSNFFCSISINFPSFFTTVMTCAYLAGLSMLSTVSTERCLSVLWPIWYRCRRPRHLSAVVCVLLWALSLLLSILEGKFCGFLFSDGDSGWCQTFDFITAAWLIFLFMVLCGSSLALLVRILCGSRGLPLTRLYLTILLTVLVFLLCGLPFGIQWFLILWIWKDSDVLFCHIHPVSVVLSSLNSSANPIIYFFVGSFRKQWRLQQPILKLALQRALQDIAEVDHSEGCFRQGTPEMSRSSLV
Put plainly: Ca2+ mobilization assay (FLIPR TETRA): inhibition of Cortistatin-14 mediated MRGPRX2 activation. In general terms: Calcium flux is commonly read through the fluorescence of an indicator in the cells.
Usually pIC50 stands for the negative decadic logarithm of the IC50, by convention in mol/L. Compound `CC(C(=O)Nc1ccc(OC2CC3(CCC3)C2)nn1)N1CCC(F)(F)[C@@H](c2ccc(=O)[nH]c2)C1` (stereo partly drawn) [Example 93, 2-((S)-4,4-difluoro-3-(6-oxo-1,6-dihydropyridin-3-yl)piperidin-1-yl)-N-(6-(spiro[3.3]heptan-2-yloxy)pyridazin-3-yl)propanamide] had a pIC50 of 5.50 to 7.00.
`C[C@@H](C(=O)Nc1ccc(Cl)cn1)N1CCC[C@@H](c2ccc(=O)[nH]c2)C1` [Example 158, (S)—N-(5-chloropyridin-2-yl)-2-((S)-3-(6-oxo-1,6-dihydropyridin-3-yl)piperidin-1-yl)propanamide] showed a pIC50 of 5.50 to 7.00.
As to `CC(C(=O)Nc1ccc(F)cn1)N1CCC(F)(F)C(c2ccc(=O)n(Cc3ncco3)c2)C1` (centres unmarked) [Example 198, 2-(4,4-difluoro-3-(1-(oxazol-2-ylmethyl)-6-oxo-1,6-dihydropyridin-3-yl)piperidin-1-yl)-N-(5-fluoropyridin-2-yl)propanamide], the pIC50 is 7.00 to 8.00.
The compound `C[C@@H](C(=O)Nc1ccc(Oc2ccc(F)cn2)cn1)N1CCC(F)(F)[C@@H](c2c[nH]c(=O)c(CO)c2)C1` [Example 157, (S)-2-((S)-4,4-difluoro-3-(5-(hydroxymethyl)-6-oxo-1,6-dihydropyridin-3-yl)piperidin-1-yl)-N-(5-((5-fluoropyridin-2-yl)oxy)pyridin-2-yl)propanamide] showed a pIC50 of 7.00 to 8.00.
For the compound `C[C@@H](C(=O)Nc1ccc(OCC2CC2)nn1)N1CCC(F)(F)[C@@H](c2cc[n+]([O-])c(CC(F)(F)F)c2)C1` [Example 220], the pIC50 was ≥ 8.00.
Take `C[C@@H](C(=O)Nc1ccc(/C=C/C2CC2)cn1)N1CCC(F)(F)[C@@H](c2ccc(=O)[nH]c2)C1` [Example 10]: the pIC50 is 7.00 to 8.00.
In the case of `C[C@@H](C(=O)Nc1ccc(Oc2ccc(F)c(F)c2)cn1)N1CCC(F)(F)[C@@H](c2ccc(=O)[nH]c2)C1` [Example 268, (S)-2-((S)-4,4-difluoro-3-(6-oxo-1,6-dihydropyridin-3-yl)piperidin-1-yl)-N-(5-(3,4-difluorophenoxy)pyridin-2-yl)propanamide], the pIC50 is ≥ 8.00.
In turn, `CC(C(=O)Nc1ccc(Oc2ccc(F)cc2)cn1)N1CCC(F)(F)C(c2cc[n+]([O-])c(C(O)C(F)(F)F)c2)C1` (centres unmarked) [Example 257] gave a pIC50 of 7.00 to 8.00.
Consider `C[C@@H](C(=O)Nc1ccc(OCC2CC2)nn1)[C@H]1CCC(F)(F)[C@@H](c2ccc(=O)[nH]c2)C1` [Example 276, (R)-N-(6-(cyclopropylmethoxy)pyridazin-3-yl)-2-((1S,3R)-4,4-difluoro-3-(6-oxo-1,6-dihydropyridin-3-yl)cyclohexyl)propanamide], for which the pIC50 is 7.00 to 8.00.
Turning to `C[C@@H](C(=O)Nc1ccc(C(=O)OC2CCC2)cn1)N1CCC(F)(F)[C@@H](c2ccc(=O)[nH]c2)C1` [Example 37, cyclobutyl 6-((S)-2-((S)-4,4-difluoro-3-(6-oxo-1,6-dihydropyridin-3-yl)piperidin-1-yl)propanamido) nicotinate], the pIC50 was 5.50 to 7.00.
The value for `C[C@@H](C(=O)Nc1ccc(Oc2ccc(F)cc2F)cn1)N1CCC(F)(F)[C@@H](c2cc[n+]([O-])cc2)C1` [Example 117, 4-((S)-1-((S)-1-((5-(2,4-difluorophenoxy)pyridin-2-yl)amino)-1-oxopropan-2-yl)-4,4-difluoropiperidin-3-yl)pyridine 1-oxide] was ≥ 8.00.
As for `C[C@@H](C(=O)Nc1ccc(Oc2ccc(F)cc2CN(C)C)cn1)N1CCC(F)(F)[C@@H](c2ccc(=O)[nH]c2)C1` [Example 98, (S)-2-((S)-4,4-difluoro-3-(6-oxo-1,6-dihydropyridin-3-yl)piperidin-1-yl)-N-(5-(2-((dimethylamino)methyl)-4-fluorophenoxy)pyridin-2-yl)propanamide], the pIC50 was 5.50 to 7.00.
With `C[C@@H](C(=O)Nc1ccc2c(n1)CN(C1CC1)C2)N1CCC(F)(F)[C@@H](c2ccc(=O)[nH]c2)C1` [Example 32, (S)-N-(6-cyclopropyl-6,7-dihydro-5H-pyrrolo[3,4-b]pyridin-2-yl)-2-((S)-4,4-difluoro-3-(6-oxo-1,6-dihydropyridin-3-yl)piperidin-1-yl)propanamide], the pIC50 is 5.50 to 7.00.
The value for `C[C@@H](C(=O)Nc1ccc(OCC2CC2)cn1)N1CCC(F)(F)[C@@H](c2ccc(=O)n(C)c2)C1` [Example 150, (S)—N-(5-(cyclopropylmethoxy)pyridin-2-yl)-2-((S)-4,4-difluoro-3-(1-methyl-6-oxo-1,6-dihydropyridin-3-yl)piperidin-1-yl)propanamide] was 7.00 to 8.00; that for `C[C@@H](C(=O)Nc1ccc2ccccc2n1)N1CCC(F)(F)[C@@H](c2ccc(=O)[nH]c2)C1` [Example 54, (S)-2-((S)-4,4-difluoro-3-(6-oxo-1,6-dihydropyridin-3-yl)piperidin-1-yl)-N-(quinolin-2-yl)propanamide] was 5.50 to 7.00; that for `Cc1nc(-c2ccc(Oc3ccc(NC(=O)[C@H](C)N4CCC(F)(F)[C@@H](c5ccc(=O)[nH]c5)C4)nc3)c(F)c2)cs1` [Example 99, (S)-2-((S)-4,4-difluoro-3-(6-oxo-1,6-dihydropyridin-3-yl)piperidin-1-yl)-N-(5-(2-fluoro-4-(2-methylthiazol-4-yl)phenoxy)pyridin-2-yl)propanamide] was 7.00 to 8.00.
The value for `C[C@@H](C(=O)Nc1cnc(Oc2ccccc2)cn1)N1CCC(F)(F)[C@@H](c2ccc(=O)[nH]c2)C1` [Example 60, (S)-2-((S)-4,4-difluoro-3-(6-oxo-1,6-dihydropyridin-3-yl)piperidin-1-yl)-N-(5-phenoxypyrazin-2-yl)propanamide] was 7.00 to 8.00.
Turning to `C[C@@H](C(=O)Nc1ccc(Oc2ccc(F)cn2)cn1)[C@H]1CCC[C@@H](c2cc[n+]([O-])cc2)C1` [Example 287, 4-((1R,3S)-3-((R)-1-((5-((5-fluoropyridin-2-yl)oxy)pyridin-2-yl)amino)-1-oxopropan-2-yl)cyclohexyl)pyridine 1-oxide], the pIC50 is 7.00 to 8.00.
With `C[C@@H](C(=O)Nc1cnc(Oc2c(F)cc(F)cc2F)cn1)N1CCC(F)(F)[C@@H](c2cc[n+]([O-])cc2)C1` [Example 119, 4-((S)-4,4-difluoro-1-((S)-1-oxo-1-((5-(2,4,6-trifluorophenoxy)pyrazin-2-yl)amino)propan-2-yl)piperidin-3-yl)pyridine 1-oxide], the pIC50 is ≥ 8.00.
`CC(C(=O)Nc1ccc(Cc2nccs2)cn1)N1CCC(F)(F)[C@@H](c2ccc(=O)[nH]c2)C1` (stereo partly drawn) [Example 52, 2-((S)-4,4-difluoro-3-(6-oxo-1,6-dihydropyridin-3-yl)piperidin-1-yl)-N-(5-(thiazol-2-ylmethyl)pyridin-2-yl)propanamide] had a pIC50 of 5.50 to 7.00.
With `C[C@@H](C(=O)Nc1ccc(Oc2ccc(F)cc2)cn1)N1CCC(F)(F)[C@@H](c2c[nH]c(=O)c(CN)c2)C1` [Example 204, (S)-2-((S)-3-(5-(aminomethyl)-6-oxo-1,6-dihydropyridin-3-yl)-4,4-difluoropiperidin-1-yl)-N-(5-(4-fluorophenoxy)pyridin-2-yl)propanamide], the pIC50 is ≥ 8.00.
`C[C@@H](C(=O)Nc1ccc(F)cn1)N1CCC(F)(F)[C@@H](c2ccc(=O)[nH]n2)C1` [Example 148, (S)-2-((R)-4,4-difluoro-3-(6-oxo-1,6-dihydropyridazin-3-yl)piperidin-1-yl)-N-(5-fluoropyridin-2-yl)propanamide]: the pIC50 was 5.50 to 7.00.
Compound `CC(C(=O)Nc1ccc(CC2CCCC2)cn1)N1CCC(F)(F)[C@@H](c2ccc(=O)[nH]c2)C1` (stereo partly drawn) [Example 33, N-(5-(cyclopentyl-methyl)pyridin-2-yl)-2-((S)-4,4-difluoro-3-(6-oxo-1,6-dihydropyridin-3-yl)piperidin-1-yl)propanamide] showed a pIC50 of 5.50 to 7.00.
The result for `CC(C(=O)Nc1ccc(C(O)c2ccc(F)cc2)cn1)N1CCC(F)(F)[C@@H](c2cc[n+]([O-])cc2)C1` (stereo partly drawn) [Example 129, 4-((3S)-4,4-difluoro-1-(1-((5-((4-fluorophenyl) (hydroxy)methyl)pyridin-2-yl)amino)-1-oxopropan-2-yl)piperidin-3-yl)pyridine 1-oxide] reads 4.50 to 5.50.
Consider `CC(C(=O)Nc1ccc(CC2CCCCC2)cn1)N1CCC(F)(F)[C@@H](c2ccc(=O)[nH]c2)C1` (stereo partly drawn) [Example 27, N-(5-(cyclohexyl-methyl)pyridin-2-yl)-2-((S)-4,4-difluoro-3-(6-oxo-1,6-dihydropyridin-3-yl)piperidin-1-yl)propanamide], for which the pIC50 was 5.50 to 7.00.
Turning to `C[C@@H](C(=O)Nc1ccc(Oc2c(F)cc(F)cc2F)cn1)N1CCC(F)(F)[C@@H](c2ccc(=O)[nH]c2)C1` [Example 96, (S)-2-((S)-4,4-difluoro-3-(6-oxo-1,6-dihydropyridin-3-yl)piperidin-1-yl)-N-(5-(2,4,6-trifluorophenoxy)pyridin-2-yl)propanamide], the pIC50 was ≥ 8.00.
For `C[C@@H](C(=O)Nc1ccc(Oc2ccc(F)cc2F)cn1)[C@H]1CCC(F)(F)[C@@H](c2cc[n+]([O-])cc2)C1` [Example 291, 4-((1R,5S)-5-((R)-1-((5-(2,4-difluorophenoxy)pyridin-2-yl)amino)-1-oxopropan-2-yl)-2,2-difluorocyclohexyl)pyridine 1-oxide], the pIC50 is ≥ 8.00.
For the compound `C[C@@H](C(=O)Nc1ccc(Oc2ccc(F)cc2)cn1)N1CCC(F)(F)[C@@H](c2ccc(=O)[nH]c2)C1` [Example 5, (S)-2-((S)-4,4-difluoro-3-(6-oxo-1,6-dihydropyridin-3-yl)piperidin-1-yl)-N-(5-(4-fluorophenoxy)pyridin-2-yl)propanamide], the pIC50 is ≥ 8.00.
For `C[C@@H](C(=O)Nc1ccc(OCC2CC2)cn1)N1CCC(F)(F)[C@@H](c2ccc(=O)[nH]c2)C1` [Example 75, (S)-N-(5-(cyclopropyl-methoxy)pyridin-2-yl)-2-((S)-4,4-difluoro-3-(6-oxo-1,6-dihydropyridin-3-yl)piperidin-1-yl)propanamide], the pIC50 was 7.00 to 8.00.

For the origin of these results see patent US11976057B2, “MrgX2 antagonists” (GlaxoSmithKline Intellectual Property Development Limited, priority 2020, dated 2024).
